Data published in US6933296B2, “Compounds effective as β2-adrenoreceptor agonists as well as PDE4-inhibitors” (Altana Pharma B.V., priority 2000, dated 2005).

What was measured:
PDE4 = assay: Inhibition of PDE4 activity (cytosol from human neutrophils, [3H]cAMP hydrolysis); assay type: biochemical; details: 0.5 μM cAMP, Motapizone 1 μM, DMSO 0.5% for (some of) examples 1-19, 1% from example 20
Procedure: Method for Measuring Inhibition of PDE4 Activity
PDE4 activity was determined as described by Thompson et al. (Adv Cycl Nucl Res 10: 69-92, 1979) with some modifications (Bauer and Schwabe, Naunyn-Schmiedeberg's Arch Pharmacol 311: 193-198, 1980). At a final assay volume of 200 μl (96well microtiter plates) the assay mixture contained 20 mM Tris-HCl (pH 7.4), 5 mM MgCl2, 0.5 μM cAMP, [^3H]cAMP (about 30,000 cpm/assay), the test compound and an aliquot of cytosol from human neutrophils which mainly contains PDE4 activity as described by Schudt et al. (Naunyn-Schmiedeberg's Arch Pharmacol 344: 682-690, 1991); the PDE3-specific inhibitor Motapizone (1 μM) was included to suppress PDE3 activity originating from contaminating platelets.
To minimize problems with the solubility of the compounds, starting from example 20 serial dilutions of the compounds were prepared directly in DMSO and further diluted 1:100 (v/v) in the assays to obtain now the final concentrations of the inhibitors at a DMSO concentration of 1% (v/v) which by itself only slightly affected PDE4 activity.
After preincubation for 5 min at 37° C., the reaction was started by the addition of substrate (cAMP) and the assays were incubated for further 15 min at 37° C. 50 μl of 0.2 N HCl was added to stop the reaction and the assays were left on ice for about 10 min. Following incubation with 25 μg 5′-nucleotidase (Crotalus atrox snake venom) for 10 min at 37° C., the assays were loaded on QAE Sephadex A-25 (1 ml bed volume). The columns were eluted with 2 ml of 30 mM ammonium formiate (pH 6.0) and the eluate was counted for radioactivity. Results were corrected for blank values (measured in the presence of denatured protein) which were below 5% of total radioactivity. […] The IC50-values for the compounds according to the invention for the inhibition of the PDE4 activity were determined from the concentration-inhibition curves by nonlinear-regression.

human eosinophils = assay: Inhibition of C5a-stimulated chemiluminescence in human eosinophils; assay type: cell-based; details: for IC30: Eosinophil, read-out: Inhibition of C5a-stimulated chemiluminescence [-logIC30 (mol/l)] (converted)
From the text: c) Inhibition of C5a-stimulated Chemiluminescence in Human Eosinophils
Eosinophils were purified essentially as described in detail elsewhere (Hatzelmann A, Tenor H and Schudt C, Differential effects of non-selective and selective phosphodiesterase inhibitors on human eosinophil functions. Brit J Pharmacol 114: 821-831, 1995). Briefly, total granulocytes were first purified from blood (anticoagulated with 0.3% w/v sodium citrate) by dextran sedimentation, centrifugation on Ficoll Paque and hypotonic lysis of remaining red blood cells. For the further purification of the eosinophil fraction the magnetic cell separation (MACS) system from Miltenyi Biotec (Bergisch-Gladbach, Germany) was applied. Eosinophils were separated from neutrophils by negative selection using anti-CD16 microbeads in a two-step protocol using D- and BS-(formerly called B2-) separation columns. By this method human eosinophils with a purity of >99% and a viability of >97% were obtained.
The chemiluminescence (CL) assay was essentially performed as described (Hatzelmann et al., 1995). Briefly, measurements were performed in a “CL-buffer” (140 mM NaCl, 5 mM KCl, 1 mM MgCl2, 10 mM HEPES, pH 7.4) containing 1 mM CaCl2, 1 mg/ml glucose, 0.05% (w/v) BSA, 10 μM luminol and 4 μM microperoxidase (all values correspond to final concentrations in the assays) in a total volume of 0.5 ml at a cell concentration of 10^6 cells/ml. Aliquots (0.4 ml) of the cell suspension (containing luminol and microperoxidase) were preincubated for 5 min at 37° C. in the absence or presence of inhibitors (0.05 ml). Stock solutions of the inhibitors (10 mM) were prepared in DMSO and diluted 1:100 (v/v) in CL-buffer; subsequent dilutions were made in 1% DMSO/CL-buffer to achieve the final drug concentrations in the assays at a DMSO concentration of 0.1% (v/v) which by itself only weakly affected the CL response. […] After preincubation, the assays were transferred into a “Multi-biolumat LB 9505C” from Berthold (Wildbad, Germany) and stimulated by the addition of 0.05 ml C5a (dissolved in CL-buffer; 100 nM final concentration). CL was continuously recorded for 1 min (C5a) and the AUC (area under the curve) calculated. Inhibition of CL by the compounds under these conditions is given as −log IC30 (mol/l).

[1] = 100 nM C5a, 100 nM salbutamol included as additional cAMP trigger

`COc1ccc(C2=NN(c3ccc(OCCNCC(O)c4cc(Cl)c(N)c(Cl)c4)cc3)C(=O)[C@@H]3CC=CC[C@H]23)cc1OC.O=C(O)C(=O)O` (stereo partly drawn) gave a melting point of 136 to 138 °C.
For `COc1ccc(C2=NN(C3CCN(CCS(=O)(=O)CCNCC(O)c4cc(Cl)c(N)c(Cl)c4)CC3)C(=O)[C@@H]3CC=CC[C@H]23)cc1OC.O=C(O)/C=C/C(=O)O` (stereo partly drawn), the melting point was 137 to 138 °C.
`CCOc1ccc(C2=NN(C3CCN(C(=O)CNCC(O)c4cc(Cl)c(N)c(Cl)c4)CC3)C(=O)[C@@H]3CC=CC[C@H]23)cc1OCC.O=C(O)/C=C/C(=O)O` (stereo partly drawn) gave a melting point of 172 to 173 °C.
Work on `COc1ccc(C2=NN(C3CCN(C(=O)[C@H](C)NCC(O)c4cc(N)c(N)c(Cl)c4)CC3)C(=O)[C@@H]3CC=CC[C@H]23)cc1OC.O=C(O)/C=C/C(=O)O` (stereo partly drawn) yielded a melting point of 130 to 131 °C.
Compound `COc1ccc(C2=NN(c3ccc(OCCCCNCC(O)c4ccc(O)c(CO)c4)cc3)C(=O)[C@@H]3CC=CC[C@H]23)cc1OC.O=C(O)/C=C/C(=O)O` (stereo partly drawn) has a melting point of 126 to 127 °C.
In the case of `COc1ccc(C2=NN(C3CCN(CCCCCCNCC(O)c4cc(Cl)c(N)c(C#N)c4)CC3)C(=O)[C@@H]3CC=CC[C@H]23)cc1OC.O=C(O)/C=C/C(=O)O` (stereo partly drawn), the melting point is reported as 142 to 143 °C.
With `COc1ccc(C2=NN(CCNCC(O)c3cc(Cl)c(N)c(Cl)c3)C(=O)C3CC=CCC23)c2c1OC1(CCCC1)C2` (stereo not drawn) [Compound 8, (cis)-2-(2-[{2-(4-amino-3,5-dichlorophenyl)-2-hydroxyethyl}amino]-1-ethyl)-4-(2,3-dihydro-7-methoxybenzofuran-2-spiro-1′-cyclopentan-4-yl)-4a,5,8,8a-tetrahydro-2H-phthalazin-1-one] the melting point was 176 to 177 °C, the Inhibition of PDE4 activity [-logIC50] (PDE4) was 8.18 and the IC30 (human eosinophils; [1]) was 398 nM.
For `COc1ccc(C2=NN(c3ccc(OCCCCNCC(O)c4cc(Cl)c(N)c(Cl)c4)cc3)C(=O)[C@@H]3CC=CC[C@H]23)cc1OC.O=C(O)/C=C/C(=O)O` (stereo partly drawn) [Compound 21, (4aS,8aR)-2-(4-{4-[2-(4-Amino-3,5-dichlorophenyl)-2-hydroxy-ethylamino]-butoxyl}-phenyl)-4-(3,4-dimethoxy-phenyl)-4a,5,8,8a-tetrahydro-2H-phthalazin-1-one fumarate], the melting point was 126 to 127 °C, the Inhibition of PDE4 activity [-logIC50] (PDE4) was 10 and the IC30 (human eosinophils; [1]) was 302 nM.
Work on `COc1ccc(C2=NN(Cc3ccc(OCCCCNCC(O)c4cc(Cl)c(N)c(Cl)c4)cc3)C(=O)[C@@H]3CC=CC[C@H]23)cc1OC.O=C(O)/C=C/C(=O)O` (stereo partly drawn) [Compound 22, (4aS,8aR)-2-(4-{4-[2-(4-Amino-3,5-dichloro-phenyl)-2-hydroxy-ethylamino]-butoxy}-benzyl)-4-(3,4-dimethoxy-phenyl)-4a,5,8,8a-tetrahydro-2H-phthalazin-1-one fumarate] yielded a melting point of 119 to 120 °C, an Inhibition of PDE4 activity [-logIC50] (PDE4) of 9.79 and an IC30 (human eosinophils; [1]) of 200 nM.
`COc1ccc(C2=NN(C3CCN(C(=S)NCCCCNCC(O)c4cc(Cl)c(N)c(Cl)c4)CC3)C(=O)[C@@H]3CC=CC[C@H]23)cc1OC` (stereo partly drawn) [Compound 25, 4-[(4aS,8aR)-4-(3,4-Dimethoxy-phenyl)-1-oxo-4a,5,8,8a-tetrahydro-1H-phthalazin-2-yl]-piperidine-1-carbothioic acid {4-[2-(4-amino-3,5-dichloro-phenyl)-2-hydroxy-ethylamino]-butyl}-amide] showed a melting point of 139 to 144 °C, an Inhibition of PDE4 activity [-logIC50] (PDE4) of 10.6 and an IC30 (human eosinophils; [1]) of 794 nM.
`COc1ccc(C2=NN(C3CCN(S(=O)(=O)CCNCC(O)c4cc(Cl)c(N)c(Cl)c4)CC3)C(=O)[C@@H]3CC=CC[C@H]23)cc1OC.O=C(O)/C=C/C(=O)O` (stereo partly drawn) [Compound 27, (4aS,8aR)-2-(1-{2-[2-(4-Amino-3,5-dichloro-phenyl)-2-hydroxy-ethylamino]-ethanesulfonyl}-piperidin-4yl)-4-(3,4-dimethoxy-phenyl)-4a,5,8,8a-tetrahydro-2H-phthalazin-1-one fumarate] showed a melting point of 169 to 171 °C, an Inhibition of PDE4 activity [-logIC50] (PDE4) of 11.2 and an IC30 (human eosinophils; [1]) of 398 nM.
Work on `COc1ccc(C2=NN(C3CCN(S(=O)(=O)CCNCC(O)c4ccc(O)c(CO)c4)CC3)C(=O)[C@@H]3CC=CC[C@H]23)cc1OC` (stereo partly drawn) [Compound 29, (4aS,8aR)-4-(3,4-Dimethoxy-phenyl)-2-(1-{2-[2-hydroxy-2-(4-hydroxy-3-hydroxymethyl-phenyl)-ethylamino]-ethanesulfonyl}-piperidin-4-yl)-4a,5,8,8a-tetrahydro-2H-phthalazin-1-one] yielded a melting point of 97 to 99 °C.
Compound `COc1ccc(C2=NN(C3CCN(C(=O)CCSCCNCC(O)c4cc(Cl)c(N)c(Cl)c4)CC3)C(=O)[C@@H]3CC=CC[C@H]23)cc1OC.Cl` (stereo partly drawn) [Compound 30, (4aS,8aR)-2-[1-(3-{2-[2-(4-Amino-3,5-dichloro-phenyl)-2-hydroxy-ethylamino]-ethylsulfanyl}-propanoyl)-piperidin-4-yl]-4-(3,4-dimethoxy-phenyl)-4a,5,8,8a-tetrahydro-2H-phthalazin-1-one hydrochloride] has a melting point of 118 to 120 °C, an Inhibition of PDE4 activity [-logIC50] (PDE4) of 10.7 and an IC30 (human eosinophils; [1]) of 200 nM.
With `COc1ccc(C2=NN(C3CCN(C(=O)CCS(=O)(=O)CCNCC(O)c4cc(Cl)c(N)c(C#N)c4)CC3)C(=O)[C@@H]3CC=CC[C@H]23)cc1OC` (stereo partly drawn) [Compound 32, 2-Amino-3-chloro-5-{2-[2-(3-{4-[(4aS,8aR)-4-(3,4-dimethoxy-phenyl)-1-oxo-4a,5,8,8a-tetrahydro-1H-phthalazin-2-yl]-piperidin-1-yl}-3-oxo-propane-1-sulfonyl)-ethylamino]-1-hydroxy-ethyl}-benzonitrile] the melting point was 102 to 103 °C, the Inhibition of PDE4 activity [-logIC50] (PDE4) was 11.4 and the IC30 (human eosinophils; [1]) was 229 nM.
Compound `COc1ccc(C2=NN(C3CCN(C(=O)[C@H](C)NCC(O)c4cc(Cl)c(N)c(C#N)c4)CC3)C(=O)[C@@H]3CC=CC[C@H]23)cc1OC.Cl` (stereo partly drawn) [Compound 33, 2-Amino-3-chloro-5-[2-((S)-2-{4-[(4aS,8aR)-4-(3,4-dimethoxy-phenyl)-1-oxo-4a,5,8,8a-tetrahydro-1H-phthalazin-2-yl]-piperidin-1-yl}-1-methyl-2-oxo-ethylamino)-1-hydroxy-ethyl]-benzonitrile hydrochloride] has a melting point of 160 to 161 °C, an Inhibition of PDE4 activity [-logIC50] (PDE4) of 10.1 and an IC30 (human eosinophils; [1]) of 501 nM.
For `CC(C)(C)NCC(O)c1ccc(O)c(CO)c1` (stereo not drawn) [salbutamol, reference compound], the “effect on the CL response by itself” value (human eosinophils; 100 nM final concentration, C5a-stimulated) was “hardly affected the CL response”.
In the case of “(cis)-2-{4-(2-[{2-(4-amino-3,5-dichlorophenyl)-2-hydroxyethyl}amino]-1-ethyl}phenyl)-4-(3,4-dimethoxyphenyl)-4a,5,8,8a-tetrahydro-2H-phthalazin-1-one hemifumarate [Compound 5]”, the “Inhibition of C5a-stimulated chemiluminescence [-logIC30 (mol/l)]” value (human eosinophils; [1]) is reported as 6.70 mol/l.
